Results taken from the supplement of paper PMC4723716.
Structures can show the parent of a compound that is named as a salt.

System: Plasmodium falciparum NF54 gametocytes
Conditions: 384, incubation time: 72 h
Method: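 Known antimalarials and MMV control compounds in dose response against each stage (I–V) […] The fitted EC50 is reported as IC50 in µM; '>' marks the top dose reached without a curve.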

[1] = gametocyte stage: Stage I Dose Response IC50 (µM), assay protocol: TSSA
[2] = gametocyte stage: Stage II Dose Response IC50 (µM), assay protocol: TSSA
[3] = gametocyte stage: Stage III Dose Response IC50 (µM), assay protocol: TSSA
[4] = gametocyte stage: Stage IV Dose Response IC50 (µM), assay protocol: TSSA
[5] = gametocyte stage: Stage V Dose Response IC50 (µM), assay protocol: TSSA
[6] = gametocyte stage: Stage I Dose Response IC50 (µM), assay protocol: SaLSSA
[7] = gametocyte stage: Stage II Dose Response IC50 (µM), assay protocol: SaLSSA
[8] = gametocyte stage: Stage III Dose Response IC50 (µM), assay protocol: SaLSSA
[9] = gametocyte stage: Stage IV Dose Response IC50 (µM), assay protocol: SaLSSA
[10] = gametocyte stage: Stage V Dose Response IC50 (µM), assay protocol: SaLSSA

Compound	IC50 of gametocyte viability [1] [µM]	IC50 of gametocyte viability [2] [µM]	IC50 of gametocyte viability [3] [µM]	IC50 of gametocyte viability [4] [µM]	IC50 of gametocyte viability [5] [µM]	IC50 of gametocyte viability [6] [µM]	IC50 of gametocyte viability [7] [µM]	IC50 of gametocyte viability [8] [µM]	IC50 of gametocyte viability [9] [µM]	IC50 of gametocyte viability [10] [µM]
CN(C)c1ccc2nc3ccc(=[N+](C)C)cc-3sc2c1 [Methylene Blue trihydrate]	0.0222	0.0164	0.0181	0.0454	1.04					
CC(=O)N[C@@H](C(=O)O)C(C)(C)S [N-acetyl-D-penicillamine]						> 12.5	> 12.5	> 12.5	> 12.5	> 12.5
COc1cc(N[C@H](C)CCCN)c2nccc(C)c2c1Oc1ccc(Cl)c(Cl)c1 [NPC-1161B] [listing 1 of 2 here]	5.21	6.63	4.57	6.24	5.22					
COc1cc(N[C@H](C)CCCN)c2nccc(C)c2c1Oc1ccc(Cl)c(Cl)c1 [NPC-1161B] [listing 2 of 2 here]						2	2.02	3.51	3.6	2.86
CC(C)(C)NCc1cc(Nc2ccnc3cc(Cl)ccc23)c2c(c1O)CCCC2 [Naphthoquine] [listing 1 of 2 here]	0.0234	0.0128	> 4.17	> 4.17	> 4.17					
CC(C)(C)NCc1cc(Nc2ccnc3cc(Cl)ccc23)c2c(c1O)CCCC2 [Naphthoquine] [listing 2 of 2 here]						0.0251	0.0145	0.296	> 4.17	> 4.17
C(CN1CCOCC1)Oc2ccc(cc2)[C@@H]3CC[C@@]4(CC3)OO[C@@]5(O4)[C@@H]6CC7C[C@@H](CC5C7)C6 [OZ 439 mesylate]						0.0107	0.00536	0.00342	0.0019	> 12.5
c1cc([C@H]2CC[C@]3(CC2)OO[C@]2(O3)C3CC4CC(C3)CC2C4)ccc1OCCN1CCOCC1 [OZ 439 mesylate]	0.0102	0.01	0.00852	0.00553	> 12.5					
CCc1nc(N)nc(N)c1OCCCOc1ccccc1CCC(=O)O [P218.HCl]						> 12.5	> 12.5	> 12.5	> 12.5	> 12.5
CCN(CC)CCCC(C)Nc1cc(OC)cc2cccnc12 (stereo not given) [Pamaquine (diethlyprimaquine)]	1.67	2.87	5.15	5.28	9.38	1.68	1.4	2.41	2.82	2.53
N=C(N)c1ccc(OCCCCCOc2ccc(C(=N)N)cc2)cc1 [Pentamidine] [listing 1 of 2 here]	0.713	0.878	1.19	1	2.36					
N=C(N)c1ccc(OCCCCCOc2ccc(C(=N)N)cc2)cc1 [Pentamidine] [listing 2 of 2 here]						0.397	0.591	0.697	0.813	2.14
Clc1ccc2c(N3CCN(CCCN4CCN(c5ccnc6cc(Cl)ccc56)CC4)CC3)ccnc2c1 [Piperaquine phosphate] [listing 1 of 2 here]	0.0223	0.0262	> 4.17	> 4.17	> 4.17					
Clc1ccc2c(N3CCN(CCCN4CCN(c5ccnc6cc(Cl)ccc56)CC4)CC3)ccnc2c1 [Piperaquine phosphate] [listing 2 of 2 here]						0.018	0.0145	0.031	> 4.17	> 4.17
COc1cc(NC(C)CCCN)c2ncccc2c1 (stereo not given) [Primaquine]	3.35	6.41	7.96	9.44	> 11.3	2.47	2.25	5.4	5.15	6.5
COc1ccc2nc3cc(Cl)ccc3c(Nc3cc(CN4CCCC4)c(O)c(CN4CCCC4)c3)c2n1 [Pyronaridine phosphate] [listing 1 of 2 here]	0.0101	0.0125	0.315	3.82	3.16					
COc1ccc2nc3cc(Cl)ccc3c(Nc3cc(CN4CCCC4)c(O)c(CN4CCCC4)c3)c2n1 [Pyronaridine phosphate] [listing 2 of 2 here]						0.0132	0.01	0.125	2.58	2.08
C=C[C@H]1CN2CC[C@H]1C[C@@H]2[C@@H](O)c1ccnc2ccc(OC)cc12 [Quinidine] [listing 1 of 2 here]	0.18	0.275	2.83	> 12.5	> 12.5					
C=C[C@H]1CN2CC[C@H]1C[C@@H]2[C@@H](O)c1ccnc2ccc(OC)cc12 [Quinidine] [listing 2 of 2 here]						0.138	0.208	> 9.17	> 12.5	> 11.8
C=C[C@H]1CN2CC[C@H]1C[C@H]2[C@H](O)c1ccnc2ccc(OC)cc12 [Quinine sulfate dihydrate (coeff. 2)]	0.918	0.767	1.58	> 12.5	> 12.5					
C=C[C@H]1CN2CC[C@@H]1C[C@H]2[C@H](O)c1ccnc2ccc(OC)cc12 [Quinine sulfate dihydrate (coeff. 2)]						0.44	0.496	> 8.77	> 12.5	> 8.86
Nc1ccc(S(=O)(=O)Nc2ncccn2)cc1 [Sulfadiazine] [listing 1 of 2 here]	> 12.5	> 12.5	> 12.5	> 12.5	> 12.5					
Nc1ccc(S(=O)(=O)Nc2ncccn2)cc1 [Sulfadiazine] [listing 2 of 2 here]						> 12.5	> 12.5	> 12.5	> 12.5	> 12.5
COc1ncnc(NS(=O)(=O)c2ccc(N)cc2)c1OC [Sulfadoxine]						> 12.5	> 12.5	> 12.5	> 12.5	> 12.5
Cc1cc(NS(=O)(=O)c2ccc(N)cc2)no1 [Sulfamethoxazole] [listing 1 of 2 here]	> 12.5	> 12.5	> 12.5	> 12.5	> 12.5					
Cc1cc(NS(=O)(=O)c2ccc(N)cc2)no1 [Sulfamethoxazole] [listing 2 of 2 here]						> 12.5	> 12.5	> 12.5	> 12.5	> 12.5
COc1cc(C)c2c(Oc3cccc(C(F)(F)F)c3)c(OC)cc(NC(C)CCCN)c2n1 (stereo not given) [Tafenoquine] [listing 1 of 2 here]	5.3	7.55	7.03	6.87	0.919					
COc1cc(C)c2c(Oc3cccc(C(F)(F)F)c3)c(OC)cc(NC(C)CCCN)c2n1 (stereo not given) [Tafenoquine] [listing 2 of 2 here]						4.56	3.68	3.74	3.48	2.45
CN(C)[C@@H]1C(O)=C(C(N)=O)C(=O)[C@@]2(O)C(O)=C3C(=O)c4c(O)cccc4[C@@](C)(O)[C@H]3C[C@@H]12 [Tetracycline]						> 12.5	> 12.5	> 12.5	> 12.5	> 12.5
C=C(NC(=O)C(=C)NC(=O)c1csc(C2=N[C@@H]3c4csc(n4)[C@H]4NC(=O)c5csc(n5)[C@H]([C@](C)(O)[C@@H](C)O)NC(=O)[C@H]5CSC(=N5)/C(=C/C)NC(=O)[C@H]([C@@H](C)O)NC(=O)c5csc(n5)[C@]3(CC2)NC(=O)[C@H](C)NC(=O)C(=C)NC(=O)[C@H](C)NC(=O)[C@H]([C@@H](C)CC)N[C@@H]2C=Cc3c([C@H](C)O)cc(nc3[C@H]2O)C(=O)O[C@@H]4C)n1)C(N)=O [Thiostrepton]	4.04	4.81	3.75	3.41	3.42					
